Source: PubChem BioAssay (NCI)
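Protocol summary: plate cells (96-well), add compound at 5 concentrations, incubate 48 h, interpolate endpoints linearly. Abbreviation: GI50, concentration required for 50% inhibition of growth. TGI: concentration producing complete growth inhibition.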

How the values were obtained:
Assay in all cases: DTP human tumour cell line panel, 48 h
HCT-116 colon = test system: HCT-116 colon
CAKI-1 renal = test system: CAKI-1 renal
OVCAR-3 ovarian = test system: OVCAR-3 ovarian
SF-539 CNS = test system: SF-539 CNS
ACHN renal = test system: ACHN renal
SNB-19 CNS = test system: SNB-19 CNS
COLO 205 colon = test system: COLO 205 colon
SK-OV-3 ovarian = test system: SK-OV-3 ovarian
HOP-62 NSCLC = test system: HOP-62 NSCLC
RPMI-8226 leukemia = test system: RPMI-8226 leukemia
SF-268 CNS = test system: SF-268 CNS
HCT-15 colon = test system: HCT-15 colon
IGROV1 ovarian = test system: IGROV1 ovarian
DU-145 prostate = test system: DU-145 prostate
UO-31 renal = test system: UO-31 renal
OVCAR-8 ovarian = test system: OVCAR-8 ovarian
MDA-MB-435 = test system: MDA-MB-435
786-0 renal = test system: 786-0 renal
SK-MEL-5 melanoma = test system: SK-MEL-5 melanoma
OVCAR-5 ovarian = test system: OVCAR-5 ovarian
SK-MEL-28 melanoma = test system: SK-MEL-28 melanoma
HL-60(TB) leukemia = test system: HL-60(TB) leukemia
A498 renal = test system: A498 renal
CCRF-CEM leukemia = test system: CCRF-CEM leukemia
TK-10 renal = test system: TK-10 renal
NCI/ADR-RES ovarian = test system: NCI/ADR-RES ovarian
K-562 leukemia = test system: K-562 leukemia
MCF7 breast = test system: MCF7 breast
OVCAR-4 ovarian = test system: OVCAR-4 ovarian

`COc1ccccc1[As]=[As]c1ccccc1OC` (configuration not stated) was tested, and the GI50 (HCT-116 colon) was 24.5 nM, the TGI (HCT-116 colon) was 64.1 nM and the GI50 (CAKI-1 renal) was 66 nM. It also gave a TGI (CAKI-1 renal) of 202 nM, a GI50 (OVCAR-3 ovarian) of 23.4 nM and a TGI (OVCAR-3 ovarian) of 53.1 nM. It also gave a GI50 (SF-539 CNS) of 38.3 nM, a TGI (SF-539 CNS) of 144 nM and a GI50 (ACHN renal) of 61.3 nM. For the same molecule, the TGI (ACHN renal) was 186 nM, the GI50 (SNB-19 CNS) was 65 nM and the TGI (SNB-19 CNS) was 193 nM. The GI50 (COLO 205 colon) was 20.9 nM, the TGI (COLO 205 colon) was 47.5 nM and the GI50 (SK-OV-3 ovarian) was 158 nM. The TGI (SK-OV-3 ovarian) was 293 nM, the GI50 (HOP-62 NSCLC) was 50 nM and the TGI (HOP-62 NSCLC) was 164 nM. The GI50 (RPMI-8226 leukemia) was 27.8 nM, the TGI (RPMI-8226 leukemia) was 83.2 nM and the GI50 (SF-268 CNS) was 36 nM. It also gave a TGI (SF-268 CNS) of 140 nM, a GI50 (HCT-15 colon) of 28.8 nM and a TGI (HCT-15 colon) of 118 nM. It also gave a GI50 (IGROV1 ovarian) of 41.4 nM, a TGI (IGROV1 ovarian) of 209 nM and a GI50 (DU-145 prostate) of 54.2 nM. For the same molecule, the TGI (DU-145 prostate) was 173 nM, the GI50 (UO-31 renal) was 92.3 nM and the TGI (UO-31 renal) was 240 nM. The GI50 (OVCAR-8 ovarian) was 50.7 nM, the TGI (OVCAR-8 ovarian) was 194 nM and the GI50 (MDA-MB-435) was 51.1 nM. The TGI (MDA-MB-435) was 196 nM, the GI50 (786-0 renal) was 37.7 nM and the TGI (786-0 renal) was 85.3 nM. The GI50 (SK-MEL-5 melanoma) was 46.8 nM, the TGI (SK-MEL-5 melanoma) was 163 nM and the GI50 (OVCAR-5 ovarian) was 62.7 nM. The TGI (OVCAR-5 ovarian) was 181 nM, the GI50 (SK-MEL-28 melanoma) was 43.7 nM and the TGI (SK-MEL-28 melanoma) was 153 nM. For the same molecule, the GI50 (HL-60(TB) leukemia) was 49.2 nM, the TGI (HL-60(TB) leukemia) was 262 nM and the GI50 (A498 renal) was 62.2 nM. For the same molecule, the TGI (A498 renal) was 184 nM, the GI50 (CCRF-CEM leukemia) was 26 nM and the TGI (CCRF-CEM leukemia) was 113 nM. The GI50 (TK-10 renal) was 40.1 nM, the TGI (TK-10 renal) was 141 nM and the GI50 (NCI/ADR-RES ovarian) was 76.3 nM. The TGI (NCI/ADR-RES ovarian) was 306 nM, the GI50 (K-562 leukemia) was 32.4 nM and the GI50 (MCF7 breast) was 21 nM. The TGI (MCF7 breast) was 60.4 nM, the GI50 (OVCAR-4 ovarian) was 37.2 nM and the TGI (OVCAR-4 ovarian) was 146 nM.
